Assay results as given in patent US9255100B2 (BAYER INTELLECTUAL PROPERTY GMBH, priority 2010, dated 2016).

Biological target: T1, N-terminally GST-tagged human full length recombinant Mps-1 kinase (Homo sapiens, UniProt P33981)
T1 construct: N-terminally GST-tagged human full length recombinant Mps-1 kinase; purchased Invitrogen, Karslruhe, Germany PV4071
T1 sequence (P33981 1-857): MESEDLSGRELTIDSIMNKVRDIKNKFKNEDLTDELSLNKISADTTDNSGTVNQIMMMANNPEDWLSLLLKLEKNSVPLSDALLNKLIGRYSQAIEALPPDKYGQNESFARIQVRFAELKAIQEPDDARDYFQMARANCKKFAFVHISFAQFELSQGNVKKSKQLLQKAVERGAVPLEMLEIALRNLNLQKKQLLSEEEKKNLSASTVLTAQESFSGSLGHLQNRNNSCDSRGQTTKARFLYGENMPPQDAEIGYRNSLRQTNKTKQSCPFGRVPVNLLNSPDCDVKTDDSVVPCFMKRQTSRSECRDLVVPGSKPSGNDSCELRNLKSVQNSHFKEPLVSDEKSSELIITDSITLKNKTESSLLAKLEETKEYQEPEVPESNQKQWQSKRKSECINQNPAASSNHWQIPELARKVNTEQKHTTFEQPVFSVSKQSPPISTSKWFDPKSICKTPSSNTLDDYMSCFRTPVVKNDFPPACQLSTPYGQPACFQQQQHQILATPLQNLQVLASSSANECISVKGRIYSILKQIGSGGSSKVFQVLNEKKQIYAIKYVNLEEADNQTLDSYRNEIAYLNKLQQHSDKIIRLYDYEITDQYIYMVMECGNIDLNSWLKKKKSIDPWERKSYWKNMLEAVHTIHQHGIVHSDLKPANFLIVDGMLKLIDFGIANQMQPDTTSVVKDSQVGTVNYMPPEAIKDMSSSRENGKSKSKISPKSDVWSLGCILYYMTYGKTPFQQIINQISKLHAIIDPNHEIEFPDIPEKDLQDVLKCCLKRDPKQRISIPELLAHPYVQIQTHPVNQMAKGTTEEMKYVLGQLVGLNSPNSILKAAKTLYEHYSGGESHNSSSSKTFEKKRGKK
Assay: Mps-1 kinase assay (TR-FRET)
Format: biochemical
Settings: Mps1 IC50 [nM], 10 μM ATP, 1 μM peptide substrate, 60 min at 22° C.
Outline: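 Read-out: TR-FRET from Europium-labelled anti-phospho(Ser/Thr) antibody to SA-XLent after 1 h detection incubation at 22° C. Inhibition of kinase activity measured.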

Row | Structure (SMILES) | IC50
1 | Cc1cc(-c2cnc3c(NCC(C)(C)O)cc(Nc4ccc(F)cc4F)nn23)ccc1C(=O)NC1CC1 [Example 356, N-cyclopropyl-4-{6-[(2,4-difluorophenyl)amino]-8-[(2-hydroxy-2-methylpropyl)amino]imidazo[1,2-b]pyridazin-3-yl}-2-methylbenzamide] | 0.6 nM
2 | Cc1cc(-c2cnc3c(NCC(C)C)cc(S(=O)(=O)c4ccccc4)nn23)ccc1C(=O)NC1CC1 [Example 198, N-cyclopropyl-2-methyl-4-{8-[(2-methylpropyl)amino]-6-(phenylsulfonyl)imidazo[1,2-b]pyridazin-3-yl}benzamide] | 2.6 nM
3 | Cc1cc(-c2cnc3c(NCCCC(F)(F)F)cc(Nc4ccc(F)c(F)c4)nn23)ccc1C(=O)NC1CC1 [Example 447, N-cyclopropyl-4-{6-[(3,4-difluorophenyl)amino]-8-[(4,4,4-trifluorobutyl)amino]imidazo[1,2-b]pyridazin-3-yl}-2-methylbenzamide] | 1.1 nM
4 | COc1ccc(Oc2cc(NCCC(F)(F)F)c3ncc(-c4ccc(C(=O)NC5CC5)c(C)c4)n3n2)cc1 [Example 471, N-cyclopropyl-4-{6-(4-methoxyphenoxy)-8-[(3,3,3-trifluoropropyl)amino]imidazo[1,2-b]pyridazin-3-yl}-2-methylbenzamide] | 0.2 nM
5 | Cc1cc(-c2cnc3c(NCCC(F)(F)F)cc(Oc4cccc(F)c4)nn23)ccc1C(=O)O [Example 550, 4-{6-(3-fluorophenoxy)-8-[(3,3,3-trifluoropropyl)amino]imidazo[1,2-b]pyridazin-3-yl}-2-methylbenzoic acid] | 0.5 nM
6 | Cc1cc(-c2cnc3c(NCCCS(C)(=O)=O)cc(Oc4cccc(F)c4)nn23)ccc1C(=O)NC1CC1 [Example 508, N-cyclopropyl-4-[6-(3-fluoro-phenoxy)-8-{[3-(methylsulfonyl)propyl]amino}imidazo[1,2-b]pyridazin-3-yl]-2-methyl-benzamide] | 0.2 nM
7 | CSc1cc(NCCS(=O)(=O)N2CCOCC2)c2ncc(-c3ccc(C(=O)NC4CC4)c(C)c3)n2n1 [Example 231, N-cyclopropyl-2-methyl-4-[6-(methylsulfanyl)-8-{[2-(morpholin-4-ylsulfonyl)ethyl]amino}imidazo[1,2-b]pyridazin-3-yl]benzamide] | 14.3 nM
8 | Cc1cc(-c2cnc3c(NCC(C)(C)O)cc(-c4cc[nH]n4)nn23)ccc1C(=O)NC1CC1 [Example 160, N-cyclopropyl-4-{8-[(2-hydroxy-2-methylpropyl)amino]-6-(1H-pyrazol-3-yl)imidazo[1,2-b]pyridazin-3-yl}-2-methylbenzamide] | 13.6 nM
9 | CNC(=O)c1ccc(-c2cnc3c(NCCC(F)(F)F)cc(Oc4ccc(Cl)cc4)nn23)cc1C [Example 558, 4-{6-(4-chlorophenoxy)-8-[(3,3,3-trifluoropropyl)amino]imidazo[1,2-b]pyridazin-3-yl}-N, 2-dimethylbenzamide] | 0.3 nM
10 | Cc1cc(-c2cnc3c(NCCC(F)(F)F)cc(Nc4ccc(F)cc4)nn23)ccc1C(=O)NC1CC1 [Example 358, N-cyclopropyl-4-{6-[(4-fluorophenyl)amino]-8-[(3,3,3-trifluoropropyl)amino]imidazo[1,2-b]pyridazin-3-yl}-2-methylbenzamide] | 0.1 nM
11 | Cc1cc(-c2cnc3c(NCC(C)(C)O)cc(NC4CCNC4)nn23)ccc1C(=O)NC1CC1 (racemic) [Example 272, (RS)—N-cyclopropyl-4-{8-[(2-hydroxy-2-methylpropyl)amino]-6-(pyrrolidin-3-ylamino)imidazo[1,2-b]pyridazin-3-yl}-2-methylbenzamide] | 21.1 nM

More lines, now with the values ahead:

Row | IC50 | Structure (SMILES)
12 | < 1 nM | CC(C)CNc1cc(-c2ccnn2C)nn2c(-c3ccc(C(=O)NC4CC4)cc3)cnc12 [Example 137, N-cyclopropyl-4-{8-[(2-methylpropyl)amino]-6-(1-methyl-1H-pyrazol-5-yl)imidazo[1,2-b]pyridazin-3-yl}benzamide]
13 | 3.3 nM | Cc1cc(-c2cnc3c(NCC(C)(C)O)cc(Oc4ccc(N5CCNCC5)cc4)nn23)ccc1C(=O)NC1CC1 [Example 320, N-cyclopropyl-4-{8-[(2-hydroxy-2-methylpropyl)amino]-6-[4-(piperazin-1-yl)phenoxy]imidazo [1,2-b]pyridazin-3-yl}-2-methylbenzamide]
14 | 2 nM | CC(=O)Nc1cccc(-c2cc(NCC(C)C)c3ncc(-c4ccc(C(=O)NC5CC5)cc4)n3n2)c1 [Example 126, 4-{6-[3-(Acetylamino)phenyl]-8-[(2-methylpropyl)amino]imidazo[1,2-b]pyridazin-3-yl}-N-cyclopropylbenzamide]
15 | < 0.1 nM | Cc1cc(-c2cnc3c(NCC4CC(=O)N(C)C4)cc(Oc4cccc(F)c4)nn23)ccc1C(=O)NC1CC1 (centres unmarked) [Example 329, N-cyclopropyl-4-[6-(3-fluorophenoxy)-8-{[(1-methyl-5-oxopyrrolidin-3-yl)methyl]amino}imidazo [1,2-b]pyridazin-3-yl]-2-methylbenzamide]
16 | 24.6 nM | CC(C)CNc1cc(-c2cccc3ccccc23)nn2c(-c3ccc(C(=O)NC4CC4)cc3)cnc12 [Example 102, N-cyclopropyl-4-{8-[(2-methylpropyl)amino]-6-(naphthalen-1-yl)imidazo[1,2-b]pyridazin-3-yl}benzamide]
17 | 23.8 nM | CC=Cc1cc(NCC(C)(C)O)c2ncc(-c3ccc(C(=O)NC4CC4)c(C)c3)n2n1 (mixture of isomers) [Example 24, N-cyclopropyl-4-{8-[(2-hydroxy-2-methylpropyl)amino]-6-[(1E/Z)-prop-1-en-1-yl]imidazo[1,2-b]pyridazin-3-yl}-2-methylbenzamide]
18 | 1.7 nM | Cc1cc(-c2cnc3c(NCCC(F)(F)F)cc(Sc4ccc(C(F)(F)F)cc4)nn23)ccc1C(=O)NC1CC1 [Example 247, N-cyclopropyl-2-methyl-4-(6-{[4-(trifluoromethyl)phenyl]sulfanyl}-8-[(3,3,3-trifluoropropyl)amino]imidazo[1,2-b]pyridazin-3-yl)benzamide]
19 | 6.2 nM | CSc1cc(NCC(O)C(F)(F)F)c2ncc(-c3ccc(C(=O)NC4CC4)c(C)c3)n2n1 (racemic) [Example 206, (RS)N-cyclopropyl-2-methyl-4-{6-(methylsulfanyl)-8-[(3,3,3-trifluoro-2-hydroxypropyl)amino]imidazo[1,2-b]pyridazin-3-yl}benzamide]
20 | 2.3 nM | Cc1cc(-c2cnc3c(NCC(C)(C)O)cc(Sc4ccc(Cl)cc4CO)nn23)ccc1C(=O)NC1CC1 [Example 393, 4-(6-{[4-chloro-2-(hydroxymethyl)phenyl]sulfanyl}-8-[(2-hydroxy-2-methylpropyl)amino]imidazo[1,2-b]pyridazin-3-yl)-N-cyclopropyl-2-methylbenzamide]
21 | 12 nM | Cc1cc(-c2cnc3c(NCC(C)(C)O)cc(-c4ccoc4)nn23)ccc1C(=O)NC1CC1 [Example 157, N-cyclopropyl-4-{6-(furan-3-yl)-8-[(2-hydroxy-2-methylpropyl)amino]imidazo[1,2-b]pyridazin-3-yl}-2-methylbenzamide]
22 | 1.2 nM | Cc1cc(Nc2cc(NCC(C)(C)O)c3ncc(-c4ccc(C(=O)NC5CC5)c(C)c4)n3n2)ccc1F [Example 382, N-cyclopropyl-4-{6-[(4-fluoro-3-methylphenyl)amino]-8-[(2-hydroxy-2-methylpropyl)amino]imidazo[1,2-b]pyridazin-3-yl}-2-methylbenzamide]
23 | < 1 nM | CCNC(=O)c1ccc(-c2cnc3c(NCCC(F)(F)F)cc(Oc4ccccc4C)nn23)cc1C [Example 601, N-ethyl-2-methyl-4-{6-(2-methylphenoxy)-8-[(3,3,3-trifluoropropyl)a-mino]imidazo[1,2-b]pyridazin-3-yl}benzamide]
24 | 84.8 nM | COc1cc(C(=O)NC2CC2)ccc1-c1cnc2c(NCC(C)(C)O)cc(-c3ccnn3C)nn12 [Example 50, N-cyclopropyl-4-{8-[(2-hydroxy-2-methylpropyl)amino]-6-(1-methyl-1H-pyrazol-5-yl)imidazo[1,2-b]pyridazin-3-yl}-3-methoxybenzamide]
25 | 0.2 nM | Cc1cc(-c2cnc3c(NCCC(F)(F)F)cc(S(=O)(=O)c4cccc(F)c4)nn23)ccc1C(=O)NC1CC1 [Example 83A, N-cyclopropyl-4-{6-[(3-fluorophenyl)sulfonyl]-8-[(3,3,3-trifluoropropyl)amino]imidazo[1,2-b]pyridazin-3-yl}-2-methylbenzamide]
26 | 44.4 nM | C/C=C(\C)c1cc(NCC(C)(C)O)c2ncc(-c3ccc(C(=O)NC4CC4)cc3OC)n2n1 [Example 72, 4-{6-[(2E)-But-2-en-2-yl]-8-[(2-hydroxy-2-methylpropyl)amino]imidazo[1,2-b]pyridazin-3-yl}-N-cyclopropyl-3-methoxybenzamide]
